Earlier results in patent publication US20240050408A1, “USE OF MGLUR5 ANTAGONISTS FOR TREATING AMPHETAMINE ADDICTION” (NOVARTIS AG, priority 2020, published 2024).

Tests used:
[1] = tested on: methamphetamine conditioned place preference; details: rats; Herrold et al. 2013; cited from earlier work
[2] = tested on: methamphetamine self-administration behavior; details: rat model; Gass et al. 2009; cited from earlier work

| Compound | maintenance of the expression of methamphetamine conditioned place preference [1] | cue- and drug-induced reinstatement of methamphetamine-seeking behavior [2] | cue-induced reinstatement of food-seeking behavior [2] | methamphetamine self-administration behavior [2] | overall responding for food [2] |
| --- | --- | --- | --- | --- | --- |
| Cc1cccc(C#Cc2ccccc2)n1 [MPEP, 2-Methyl-6-(phenylethynyl)-pyridine] | inhibited |  |  |  |  |
| Cc1nc(C#Cc2cccnc2)cs1 [MTEP, 3-[(2-methyl-1,3-thiazol-4-yl)ethynyl]pyridine] | inhibited | dose dependently prevented | did not alter | dose dependently reduced | without altering |
